Data taken from patent US11731927B2, “Cocrystals of ubiquinol and compositions comprising them” (Center for Intelligent Research in Crystal Engineering, S.L., priority 2018, dated 2023).

Assays:
[1] = Stability study, comparative ubiquinol vs cocrystals: storage in a chamber, periodic analysis for ubiquinone and the form detected; format: physicochemical; details: for stability at 25° C. measured by controlling the moment when ubiquinone was detected: "<" ubiquinone detected at least after the indicated days, ">" ubiquinone not detected yet
Description: Powder X-Ray diffraction (PXRD) analyses were performed by sandwiching the powder samples between polyester films of 10 micrometres of thickness or polyamide (kapton) films of 15 micrometres of thickness and analysed in a PANalytical X′Pert PRO MPD q/q powder diffractometer of 240 millimetres of radius, in a configuration of convergent beam with a focalizing mirror and a flat sample transmission geometry, in the following experimental conditions: Cu Kα radiation (λ=1.5406 Å); Work power: 45 kV and 40 mA; Incident beam slits defining a beam height of 0.4 millimetres; Incident and diffracted beam 0.02 radians Soller slits; PIXcel detector: Active length=3.347°; 2θ/θ scans from 2 to 40° 2θ with a step size of 0.026° 2θ and a measuring time of 76 seconds per step.
The stability of the different forms has been studied under two experimental conditions. The samples were stored under both conditions inside a Series FD Binder chamber and they were analyzed periodically: • condition A: 25° C. and 57% of relative humidity; • condition B: 40° C. and 75% of relative humidity.
A saturated solution of sodium bromide salt (57% RH) and a saturated solution of sodium chloride (75% RH) were used to control relative humidity.
75% HR by indicating the form detected after the mentioned days. No ubiquinone was detected at least after 14 days.

[2] = as above; format: physicochemical; details: relative humidity not controlled, "<" ubiquinone detected at least after the indicated days, ">" ubiquinone not detected yet
[3] = 25° C.-57% HR, 435 days, ^1: low crystallinity
[4] = 40° C.-75% HR, 14 days, "—^1" (footnote *): the sample absorbed moisture showing a liquid texture
[5] = 40° C.-75% HR, 51 days, ^1: low crystallinity

Row | Compound | form detected ([1]; 25° C.-57% HR, 7 days) | form detected ([1]; 25° C.-57% HR, 14 days) | form detected ([1]; 25° C.-57% HR, 51 days) | form detected ([1]; 25° C.-57% HR, 119 days) | form detected [1, 3] | form detected ([1]; 25° C.-57% HR, time 0) | stability at 25° C. measured by controlling the moment when ubiquinone was detected ([1]; 25° C.-57% HR) | form detected ([1]; 40° C.-75% HR, 7 days) | form detected [1, 4] | form detected [1, 5] | form detected ([1]; 40° C.-75% HR, time 0) | stability at 25° C. measured by controlling the moment when ubiquinone was detected [2] | further results
1 | COc1c(O)c(C)c(CC=C(C)CCC=C(C)CCC=C(C)CCC=C(C)CCC=C(C)CCC=C(C)CCC=C(C)CCC=C(C)CCC=C(C)CCC=C(C)C)c(O)c1OC.O=C(O)c1cc(O)cc(O)c1 [P58-V, Cocrystal of Ubiquinol and 3,5-dihydroxybenzoic Acid] | – | – | – | – | – | – | – | – | – | – | – | – | stability ([1]; compared with cocrystal P58-III): expected to be similar to cocrystal P58-III
2 | COc1c(O)c(C)c(CC=C(C)CCC=C(C)CCC=C(C)CCC=C(C)CCC=C(C)CCC=C(C)CCC=C(C)CCC=C(C)CCC=C(C)CCC=C(C)C)c(O)c1OC.O=C(O)c1cccc(O)c1 [P58-VI, Cocrystal of Ubiquinol and 3-Hydroxybenzoic Acid] | P58-VI | P58-VI | P58-VI | P58-VI | P58-VI^1 | P58-VI | >434 days | P58-VI | P58-VI | Ubiquinone^1 | P58-VI | >64 days | form detected ([1]; 25° C.-57% HR, 288 days): P58-VI
3 | Cocrystal Hydrate of Ubiquinol and 3,4-dihydroxybenzoic Acid [P58-III] | P58-III | P58-III | P58-III | P58-III | P58-III | P58-III | – | P58-III | P58-III | P58-III | P58-III | – | form detected ([1]; 25° C.-57% HR, 84 days): P58-III; form detected ([1]; 25° C.-57% HR, 235 days): P58-III; form detected ([1]; 25° C.-57% HR, 405 days): P58-III; form detected ([1]; 25° C.-57% HR, 551 days, ^1: low crystallinity): P58-III^1; form detected ([1]; 40° C.-75% HR, 235 days): Ubiquinone
4 | Ubiquinol [reference compound] | Form A | mixture Form A and Form B | – | – | – | Form A | <26 days | Form B | – | – | Form A | <50 days | form detected ([1]; 25° C.-57% HR, 26 days): mixture Form B and Ubiquinone; form detected ([1]; 25° C.-57% HR, 37 days): mixture Form B and Ubiquinone; form detected ([1]; 25° C.-57% HR, 62 days, ^2: analyzed by 1H-NMR, confirms presence of Ubiquinone): mixture Form B and Ubiquinone^2; form detected ([1]; 25° C.-57% HR, 130 days): mixture Form B and Ubiquinone; form detected ([1]; 25° C.-57% HR, 300 days): mixture Form B and Ubiquinone; form detected ([1]; 25° C.-57% HR, 446 days): Ubiquinone (low crystallinity)
